Solubility data for two compounds are collected here from US20100317581A1, “Ipamorelin Diacetate Injection and Infusion Solutions” (Helsinn Therapeutics (U.S.), Inc., priority 2009, published 2010).

The series is described as follows: Solubility as a function of pH / solubility in pure water. Format: physicochemical. The protocol: The solubility of ipamorelin free base at different pH values is shown graphically in FIG. 1. At pH values less than approximately 10, the drug is very soluble in aqueous media (>100 mg/ml).
This dramatic change in solubility around pH 10 is reflected in the solubilities of ipamorelin free base and its diacetate salt in pure water. The diacetate salt dissolves readily: it is capable of producing solutions greater than 100 mg/ml, with a final pH of about 7.5. The free base is much less soluble; only about 1.5 mg/ml was measured in a saturated solution, pH=9.83. However, solutions of much higher concentration can be achieved by simply adjusting the pH to around neutrality, using a solution of HCl or a similar acid.

≈ marks a conversion by molar mass, not a printed value. Where a name gives a salt, the structure may show the parent alone. Read-outs that look alike come from different tables or passages of the source. Where a SMILES comes first, the peptide text is derived from it. [ ]: non-standard residue; d: D form. d2Nal = N[C@H](Cc1ccc2ccccc2c1)C(=O)O; Aib = CC(C)(N)C(=O)O A value given as a limit tells only on which side of the number the result lay.

Broadly, the solubility is the concentration that dissolves in the medium under given conditions. For the compound `CC(C)(N)C(=O)N[C@@H](Cc1c[nH]cn1)C(=O)N[C@H](Cc1ccc2ccccc2c1)C(=O)N[C@H](Cc1ccccc1)C(=O)N[C@@H](CCCCN)C(N)=O` [diacetate salt] (H-[Aib]H[d2Nal][dF]K-NH2), the solubility (pH 7.5, pure water, final pH of about 7.5, read-out: solubility in pure water) is over 100 mg/mL. For the compound `CC(C)(N)C(=O)N[C@@H](Cc1c[nH]cn1)C(=O)N[C@H](Cc1ccc2ccccc2c1)C(=O)N[C@H](Cc1ccccc1)C(=O)N[C@@H](CCCCN)C(N)=O` [ipamorelin free base, α-Methylalanine-L-histidine-D-β-(2-naphthyl)-alanine-D-phenylalanine-L-lysinamide] (H-[Aib]H[d2Nal][dF]K-NH2), the solubility (aqueous media, pH values less than approximately 10, read-out: solubility in aqueous media) was over 100 mg/mL and the solubility (pure water, saturated solution, pH=9.83, read-out: solubility in pure water (saturated solution)) was about 1.5 mg/mL (≈ 2110 µM).
